Data as given in US6335339B1, “Triazine antiviral compounds” (Scriptgen Pharmaceuticals, Inc., priority 1998, dated 2002).

Tests used:
HBV = experiment: antiviral assay in 2.2.15 cells producing HBV (virion DNA dot blot); format: cell-based, Hepatitis B virus; details: extra-cellular virus reduced by 50%; 2.2.15 cells, 9 days treatment; read-out: Antiviral EC50
Source text: Several cell lines and cell culture assays have been developed to identify potential therapeutics effective against chronic HBV infection. One of these cell lines, 2.2.15, has been used in a standardized assay that has repeatedly proven to be an accurate model of chronic cellular HBV replication and a predictive model of antiviral response for chronic hepadnaviral infection in vivo. 2.2.15 cells contain copies of the complete HBV genome integrated into the cell's genome, and 2.2.15 cells are not susceptible to infection by HBV. (Sells, M. A. et al., J. Virol. 62 (8): 2836-2844 (1988)). These cells express HBV genes producing complete HBV particles capable of infecting chimpanzees (Acs, G. et al., Proc. Natl. Acad. Sci. USA 84 (13): 4641-4644 (1987)). Briefly, 2.2.15 cells are cultured and pretreated with a test compound for about 9 days, at which point the media are harvested and subjected to dot-blot hybridization to detect HBV virion DNA.
The antiviral activity of the compounds of the present invention is measured by the methods described in Korba and Gering, Antiviral Res. 19: 55-70 (1992).
This assay format is well suited to the screening of test compounds for potential antiviral activity. The assay provides a threshold assessment of antiviral activity by measuring (i) the levels of HBV virion release from the cells and (ii) cytotoxicity. Two rows of cells were used for each compound, and 4 rows for the assay controls (two for untreated, and two for positive antiviral control, e.g., 3TC). After incubating in the presence of test compound for 9 days, the media were harvested, transferred to 96-well U-bottom plates, and centrifuged. The supernatants were transferred to tubes for dot blot hybridization analysis of HBV virion DNA. The medium was aspirated off of the toxicity plates and discarded. Toxicity plates were then incubated with neutral red dye (MTT can also be used if preferred), washed with DPBS, developed with an acetic acid-ethanol solution, and assayed in a plate reader.
1. 2.2.15 cells were seeded into 96-well, flat bottom tissue culture plates as described above. Duplicate plates were used for the antiviral treatments for each test compound (up to 8 compounds per pair of plates); after three to four days, cells were confluent and medium was yellow in color; the medium was removed and replaced with 100 μl RP2 24 hours before the beginning of drug treatment.
i) For each compound, a total of 4 concentrations were examined; this required 9 sets of 4 sterile, 1.1 ml minitubes (36 tubes per compound). Into the first tube of each set, sufficient compound was aliquoted to make up 700 μl (for 10-fold dilution series) or 980 μl (for 3.3-fold dilution series) of the highest test concentration; the other tubes were left empty.
i) For a 10-fold dilution series: to the first (compound containing) tube was added 700 μl (175 μl×4). 630 μl (210 μl×3) RP2 culture medium was added to the remaining 3 tubes. The first tube was mixed by pipeting up and down with a pipetman (a multichannel pipetman permits the simultaneous processing of multiple compounds). 70 μl of test compound-containing medium were serially transferred from the first tube to the other 3 tubes, taking care to thoroughly mix each tube before transferring medium;
b) 100 μl of each dilution of every compound was added to each of 6 wells (3 wells per plate) using the configuration listed below as an example. The lowest concentration was added first, and the same tips were used to add the higher concentrations. The untreated cells received 100 μl RP2 per well (untreated cells have to be carried on only one pair of the antiviral assay plates).
c) Treatments were repeated daily for 9 days. For the last day of treatment, and additional 200 μl RP2 were added to each well of the antiviral assay plates after the wells are treated with the test compounds (a total of 300 μl medium per well).
6. […]

2.2.15 cells = experiment: neutral red dye uptake cytotoxicity; format: cell-based; details: 9 days treatment, read-out: 50% Cell Death CC50
Description: Further, the antiviral effect of any compound must be measured against its toxicity. Cytotoxicity is measured by the neutral red uptake method using the same cells used for antiviral activity.
2b. Compounds were prepared for toxicity treatment as follows: For each compound, a total of 4 concentrations were examined. This required 9 sets of 4 sterile, 1.1 ml minitubes (36 tubes per compound). Into the first tube of each set, sufficient compound was aliquoted to make up 465 μl of the highest test concentration. The other tubes were left empty. The tubes were covered with the rack lids, and stored at −20° C. or at an appropriate temperature. Tubes for the last day of treatment for toxicity testing contain the same amount of compound as used the previous days (not 3xas for the antiviral assays).
3b. The cytotoxicity of test compounds was analyzed in a 3.3-fold dilution series as follows. […] (155 μl×3) of RP2 were added to the first tube (containing the aliquot of compound) and 310 μL (155 μl×2) RP2 to each of the 3 remaining tubes. 150 μl of test compound-containing medium were serially transferred from the first tube to the other 3 tubes.
5. A single plate was used for the toxicity treatments for each test compound (up to 7 compounds per plates since the top row were reserved for untreated cells on every toxicity plate). To initiate the treatments, the culture medium was removed, and 100 μl of each dilution of every compound were added to each of 3 wells using a configuration similar to that shown above for the antiviral treatments. The untreated cells received 100 μl RP2 per well. Treatment was repeated daily for 9 days.
The antiviral effect of any compound was evaluated relative to its toxicity. Cells were seeded and treated following the guidelines above, after which a neutral red dye uptake assay was performed to assess toxicity as described below. Other assays of cytotoxicity (e.g., MTT) can be substituted for the procedure described below. Note that this procedure assesses toxicity under culture and treatment conditions which are identical to those used for the antiviral analyses, thereby permitting a determination as to whether the reduction in virus production due to a specific antiviral effect or due to a cytotoxic effect on the host cell. Since the cultures, by necessity, are at confluence, the cytotoxic effects of the test compounds will probably be reduced relative to the cytotoxic effects that would be expected for actively dividing cells.
1. Cultures were treated with test compounds on the designated toxicity plates as described above.
2. The culture medium was carefully removed 24 hours following the 9th day of treatment. The monolayer was fully removed in the top left three wells (row A, col. 1-3). These wells were used as “blanks” for the plate reader.
3. 100 μl DPBS (containing 0.01% neutral red dye) were added to each well, including the empty wells, and Incubated in the tissue culture incubator for 30 minutes.
4. The dye was removed carefully and gently, using a multichannel pipetman since the monolayers can become fragile after incubation with neutral red dye. 200 μl DPBS were added to all the wells taking care not to displace the monolayers. The DPBS was removed and 100 μl 50% EtOH/1% glacial acetic acid (in H2O) were added to each well. The plates were mixed for 15 minutes on an orbital platform shaker (120-150 RPM) to allow for full extraction of the dye from the cells.
5. Optical absorbance at 510 nm was read in an ELISA type plate reader, using the 3 empty wells to set the background. An average absorbance value was calculated for the 9 untreated cultures on a plate, and the absorbance of dye for the treated cultures on the same plate was expressed as a percentage of that value. This procedure was repeated for each individual plate. […]

Structure (SMILES) | EC50 (HBV) [µM] | CC50 (2.2.15 cells) [µM]
Oc1ccc(Br)cc1C=NNc1nc(Nc2cccc(Br)c2)nc(N2CCOCC2)n1 [Compound 232] | > 100 | 190
CNc1nc(NN=Cc2cc(Cl)ccc2O)nc(Nc2ccccc2)n1 [Compound 245] | > 100 | 137
Oc1ccc(Br)cc1C=NNc1nc(Nc2cccc(C(F)(F)F)c2)nc(N2CCOCC2)n1 [Compound 246] | 5.2 | 141
FC(F)(F)c1cccc(Nc2nc(Nc3cccc(Cl)c3)nc(N3CCOCC3)n2)c1 [Compound 247] | > 100 | 136
Cc1ccc(Nc2nc(NCc3cc(F)ccc3F)nc(Nc3ccc([N+](=O)[O-])cc3)n2)cc1C [Compound 248] | > 100 | 135
Cc1ccc(Nc2nc(NN=Cc3ccc(Cl)cc3)nc(N3CCOCC3)n2)cc1 [Compound 249] | > 100 | 134
Cc1ccc(Nc2nc(NNC(=O)c3ccccc3O)nc(Oc3ccc([N+](=O)[O-])cc3)n2)cc1C [Compound 250] | > 100 | 123
Cc1ccc(Nc2nc(Nc3cccc(C(F)(F)F)c3)nc(N3CCOCC3)n2)cc1C [Compound 251] | > 100 | 96
COc1ccc(Nc2nc(NCCc3ccccc3)nc(N(C)C)n2)cc1OC [Compound 252] | 9.5 | 61
CNc1nc(NN=Cc2ccccc2C(F)(F)F)nc(Nc2cccc(C(F)(F)F)c2)n1 [Compound 253] | 18 | 193
